The source of these data is ChEMBL document CHEMBL5380875, “Discovery of a Potent and Oral Available Complex I OXPHOS Inhibitor That Abrogates Tumor Growth and Circumvents MEKi Resistance” (J Med Chem, 2023).

Each structure is given as a SMILES string.

For test [1], the system named is NCI-H460. Description: Induction of apoptosis in human NCI-H460 cells with high-OXPHOS harboring KRAS Q61H mutant assessed as early apoptotic cells at 500 nM incubated for 72 hrs by Annexin V-FITC/propidium iodide staining based flow cytometry analysis (reference value: 1.95%). Type of test: functional.
Test [2] concerns A549. Briefly: Cytotoxicity against human Trametinib-resistant A549 cells assessed as reduction in cell viability incubated for 72 hrs by CellTiter 96 cell proliferation assay. The following applies: A549, 72 h. In kind it is functional, cell-based.
Test [3] deals with A549. Briefly: Induction of apoptosis in human Trametinib-resistant A549 cells with high-OXPHOS harboring KRAS G12S mutant assessed as early apoptotic cells at 500 nM incubated for 72 hrs by Annexin V-FITC/propidium iodide staining based flow cytometry analysis (reference value: 4.31%). In kind it is functional.
The test system of test [4] is A549. Description: Induction of apoptosis in human Trametinib-resistant A549 cells with high-OXPHOS harboring KRAS G12S mutant assessed as late apoptotic cells at 500 nM incubated for 72 hrs by Annexin V-FITC/propidium iodide staining based flow cytometry analysis (reference value: 4.27%). In kind it is functional. For orientation: Flow cytometry measures light scatter and fluorescence of single cells or particles in a stream.

Test [5] relates to NCI-H460. Description: Induction of apoptosis in human NCI-H460 cells with high-OXPHOS harboring KRAS Q61H mutant assessed as late apoptotic cells at 500 nM incubated for 72 hrs by Annexin V-FITC/propidium iodide staining based flow cytometry analysis (reference value: 5.68%). Type of test: functional.
Test [6] relates to A549. Briefly: Cytotoxicity against human A549 cells assessed as reduction in cell viability incubated for 72 hrs by CellTiter 96 cell proliferation assay. The following applies: A549, 72 h. In kind it is functional, cell-based.

On to `CC(=O)Nc1cccc(-n2c(=O)n(C3CC3)c(=O)c3c(Nc4ccc(I)cc4F)n(C)c(=O)c(C)c32)c1` [TRAMETINIB], for which the Activity with NCI-H460 [1] stood at 2.51%; with A549 [3] it was 6.94%; with A549 [4], 15.6%; with NCI-H460 [5], 8.3%. Further, the results for the IC50 with A549 [2] and with A549 [6] were 38.1 µM and 0.296 µM, respectively.

By IC50 is commonly meant the concentration that inhibits the measured activity by half.
